# Assay results published in patent publication US20210317099A1, “SAFER, POTENT, AND FAST ACTING ANTIMICROBIAL AGENTS” (Purdue Research Foundation, priority 2020, published 2021).
# Where two headings read alike, the source gives them in different places.
# Legend:
# MRSA USA 400 = experiment: Time-kill assay; assay type: cell-based, Staphylococcus aureus; details: 5×MIC
# Method: In order to the mode of killing of methylene lactone compounds, a time kill assay was performed against MRSA USA 400 as described previously. MRSA USA400 cells in logarithmic growth phase (OD600˜1.00) were diluted to 6.03×10^6 colony-forming units (CFU/mL) and exposed to concentrations equivalent to 5×MIC (in triplicate) of 148, 149, 151, 155, 158 and vancomycin in Tryptic soy broth. Aliquots (100 μL) were collected from each treatment after 0, 2, 4, 6, 8, 12, and 24 hours of incubation at 37° C. and subsequently serially diluted in PBS. Bacteria were then transferred to Tryptic soy agar plates and incubated at 37° C. for 18-20 hours before viable CFU/mL was determined (FIG. 1).
# DMSO (solvent for the compounds) served as a negative control and vancomycin served as a control drug. The error bars represent standard deviation values obtained from triplicate samples used for each compound/antibiotic studied.
# [1] = tested on: total proteases production in MRSA USA300; experiment: Inhibition of staphylococcal total proteases production, skimmed milk method; assay type: cell-based, Staphylococcus aureus; details: MRSA USA300, 0.25×MIC, untreated = 100%
# Method: The modified skimmed milk method was utilized to investigate the protease inhibitory activities of BHS compounds as described previously. In brief, overnight culture of MRSA300 in TSB, with and without subinhibitory concentrations of compounds (in triplicate), was centrifuged at 14000×g for 10 minutes. Then, a total volume of 500 μL of culture supernatant was incubated with 1 mL skimmed milk (1.25%) at 37° C. for 1 hour. Afterwards, the OD600 was measured to indicate the degree of clearance of skimmed milk. Higher OD values indicate lower proteolytic activity and greater protease inhibitory activity.
# FIG. 4. Influence of BHS compounds on the staphylococcal total protease production. OD600 was measured following overnight culturing of MRSA USA300 in TSB in presence and absence of 0.25×MIC of 148, 149, 155, 158 and vancomycin followed by incubation of supernatants with skim milk for 1 hour at 37° C. The Data are presented as percent production (means±standard deviation). DMSO (the solvent for the compounds that served as a negative control). Vancomycin served as the control antibiotic. The values represent an average (means±standard deviation) of four samples analyzed for each compound/antibiotic. Error bars represent standard deviation values. An asterisk (*) denotes statistical significance (P<0.05) between results for compounds 148, 149, 155, 158 and vancomycin analyzed via unpaired t test ([…]).
# [2] = tested on: Staphylococcus aureus NRS384 (MRSA USA300); experiment: Initial MIC screening, broth microdilution (CLSI); assay type: cell-based; details: for potency compared with control antibiotic: MRSA USA300, Table 1 assay; for MIC: Staphylococcus aureus NRS384 (MRSA USA300), broth microdilution, visual reading
# Method: Method: The minimum inhibitory concentration (MIC) of the compounds 1-187, and control antibiotics (vancomycin, linezolid) was determined using the broth microdilution method against methicillin-resistant Staphylococcus aureus (MRSA) USA 300 using the broth microdilution method according to the guidelines outlined by the Clinical and Laboratory Standards Institute (CLSI). MRSA strain was cultivated on Tryptic soy agar plates and let grow for 24 hours at 37° C. under aerobic conditions. Bacterial suspension equivalent to 0.5 McFarland standard was prepared and diluted in cation-adjusted Mueller-Hinton broth (CAMHB) to attain a bacterial concentration of 5×10^5 CFU/ml and seeded in 96-well plates. The desired concentrations of each drug and compound were added in the first row of the 96-well plates and serially diluted to achieve a concentration gradient from 64 μg/ml to 0.5 μg/mL.
# VRSA 12 = experiment: MIC, Gram-positive panel; assay type: cell-based; details: Staphylococcus aureus; VRSA 12; read-out: MIC
# Method: (§1) Next, the spectrum of antibacterial activity of compounds 144, 148, 149, 151, 155, 158, and 187 was examined against a panel of clinically relevant Gram-positive bacterial pathogens including methicillin-resistant Staphylococcus aureus (MRSA), vancomycin-resistant Staphylococcus aureus (VRSA), vancomycin-resistant Enterococcus faecalis and Enterococcus faecium (VRE), and Streptococcus pneumoniae. Bacterial strains were grown aerobically overnight on tryptone soya agar plates at 37° C. Afterwards, a bacterial solution equivalent to 0.5 McFarland standard was prepared and diluted in cation-adjusted Mueller-Hinton broth (CAMHB) (for staphylococci). Enterococci and Streptococci were diluted in tryptone soya broth (TSB) to achieve a bacterial concentration of about 5×10^5 CFU/mL and seeded in 96-well plates. Compounds and control drugs were added in the first row of 96-well plates and serially diluted with media containing bacteria. Plates were then, incubated aerobically at 37° C. for 18-20 hours (except for S. pneumoniae, which was incubated at 37° C. in presence of 5% CO2 for 18-20 hours).
# S. aureus NRS 107 = experiment: MIC, Gram-positive panel; assay type: cell-based; details: Staphylococcus aureus, NRS107; S. aureus NRS 107; read-out: MIC
# Method: as §1
# MRSA NRS 119 = experiment: MIC, Gram-positive panel; assay type: cell-based; details: Staphylococcus aureus; MRSA NRS 119; read-out: MIC
# Method: as §1
# [3] = tested on: Enterococcus faecium ATCC 700221 (VRE); experiment: MIC, Gram-positive panel; assay type: cell-based; details: Enterococcus faecium ATCC 700221 (VRE); read-out: MIC
# Method: as §1
# MRSA NRS 123 = experiment: MIC, Gram-positive panel; assay type: cell-based; details: Staphylococcus aureus; MRSA NRS 123; read-out: MIC
# Method: as §1
# MRSA NRS 386 = experiment: MIC, Gram-positive panel; assay type: cell-based; details: Staphylococcus aureus; MRSA NRS 386; read-out: MIC
# Method: as §1
# [4] = tested on: Enterococcus faecalis ATCC 51299 (VRE); experiment: MIC, Gram-positive panel; assay type: cell-based; details: Enterococcus faecalis ATCC 51299 (VRE); read-out: MIC
# Method: as §1
# MRSA NRS 385 = experiment: MIC, Gram-positive panel; assay type: cell-based; details: Staphylococcus aureus; MRSA NRS 385; read-out: MIC
# Method: as §1
# S. pneumoniae ATCC 51916 = experiment: MIC, Gram-positive panel; assay type: cell-based; details: Streptococcus pneumoniae, ATCC51916; S. pneumoniae ATCC 51916; read-out: MIC
# Method: as §1
# [5] = tested on: Methicillin-resistant S. epidermidis NRS101; experiment: MIC, Gram-positive panel; assay type: cell-based; details: Staphylococcus epidermidis; Methicillin-resistant S. epidermidis NRS101; read-out: MIC
# Method: as §1
# [6] = tested on: Methicillin-resistant S. pneumoniae ATCC 700677; experiment: MIC, Gram-positive panel; assay type: cell-based; details: Streptococcus pneumoniae, ATCC700677; Methicillin-resistant S. pneumoniae ATCC 700677; read-out: MIC
# Method: as §1
# S. aureus ATCC 6538 = experiment: MIC, Gram-positive panel; assay type: cell-based; details: Staphylococcus aureus, ATCC6538; S. aureus ATCC 6538; read-out: MIC
# Method: as §1
# VRSA 10 = experiment: MIC, Gram-positive panel; assay type: cell-based; details: Staphylococcus aureus; VRSA 10; read-out: MIC
# Method: as §1
# [7] = Staphylococcus aureus, read-out: MIC
compound,measurement,setting,value
C=C(C(=O)OC)C(c1ccc2ccccc2c1)C(O)c1ccc2ccccc2c1 (stereo not shown) [Compound 149],time required for complete eradication of the bacterial count,"MRSA USA 400; MRSA USA 400, 24-hour incubation",not able to completely eradicate it after 24 hours
same,reduction in the bacterial count after 6 hours,"MRSA USA 400; MRSA USA 400, after 6 hours",3 log10
same,reduction in the bacterial count after 6 hours (percent),"MRSA USA 400; MRSA USA 400, after 6 hours",99.9%
same,total protease production,[1],63%
same,potency compared with control antibiotic,[2],potency comparable to vancomycin
same,MIC,[2],2 µg/mL
same,MIC,[2]; [7],1 to 2 µg/mL
same,MIC,VRSA 12,16 µg/mL
same,MIC,S. aureus NRS 107,1 µg/mL
same,MIC,MRSA NRS 119,1 µg/mL
same,MIC,[3],> 64 µg/mL
same,MIC,MRSA NRS 123,1 µg/mL
same,MIC,MRSA NRS 386,1 µg/mL
same,MIC,[4],> 64 µg/mL
same,MIC,MRSA NRS 385,1 µg/mL
same,MIC,S. pneumoniae ATCC 51916,4 µg/mL
same,MIC,[5],2 µg/mL
same,MIC,[6],4 µg/mL
same,MIC,S. aureus ATCC 6538,1 µg/mL
same,MIC,VRSA 10,8 µg/mL
C=C1C(=O)O[C@H](c2ccccc2)[C@@H]1c1ccc2ccccc2c1 [Compound 152],MIC,[2],8 µg/mL
C=C1C(=O)O[C@H](c2ccc3ccccc3c2)[C@@H]1c1ccccc1 [Compound 156],MIC,[2]; [7],16 µg/mL
C=C1C(=O)O[C@H](c2ccc3ccccc3c2)[C@@H]1c1cccc2ccccc12 [Compound 157],MIC,[2]; [7],> 64 µg/mL
O=C1O[C@H](c2ccccc2)[C@H](c2ccccc2)C1CN1CCCCC1 (stereo partly shown) [Compound 159],MIC,[2]; [7],16 µg/mL
O=C1O[C@H](c2ccccc2)[C@H](c2ccc3ccccc3c2)C1CN1CCCCC1 (stereo partly shown) [Compound 161],MIC,[2]; [7],16 µg/mL
O=C1O[C@H](c2cccc3ccccc23)[C@H](c2ccccc2)C1CN1CCCCC1 (stereo partly shown) [Compound 162],MIC,[2]; [7],8 µg/mL
O=C1O[C@H](c2cccc3ccccc23)[C@H](c2cccc3ccccc23)C1CN1CCCCC1 (stereo partly shown) [Compound 163],MIC,[2]; [7],> 64 µg/mL
O=C1O[C@H](c2cccc3ccccc23)[C@H](c2ccc3ccccc3c2)C1CN1CCCCC1 (stereo partly shown) [Compound 164],MIC,[2]; [7],> 64 µg/mL
O=C1O[C@H](c2ccc3ccccc3c2)[C@H](c2ccc3ccccc3c2)C1CN1CCCCC1 (stereo partly shown) [Compound 167],potency compared with control antibiotic,[2],potency comparable to vancomycin
same,MIC,[2]; [7],2 µg/mL
CN(C)CC1C(=O)O[C@H](c2cccc3ccccc23)[C@@H]1c1ccc2ccccc2c1 (stereo partly shown) [Compound 169],MIC,[2]; [7],4 µg/mL
CCN(CC)CC1C(=O)O[C@H](c2ccccc2)[C@@H]1c1cccc2ccccc12 (stereo partly shown) [Compound 173],MIC,[2]; [7],8 µg/mL
C=C1C(=O)OC(C2CCCCC2)C1c1ccccc1 (stereo not shown) [Compound 181],MIC,[2]; [7],> 64 µg/mL
O=C1OC(C2CCCCC2)[C@H](c2ccccc2)C1CN1CCCCC1 (stereo partly shown) [Compound 182],MIC,[2]; [7],32 µg/mL
C=C1C(=O)OC(C2=CC=CCC2)C1C1CCCCC1 (stereo not shown) [Compound 185],MIC,[2]; [7],> 64 µg/mL
O=C1OC(c2ccccc2)C(C2CCCCC2)C1CN1CCCCC1 (stereo not shown) [Compound 186],MIC,[2]; [7],> 64 µg/mL
"CC(=O)NC[C@H]1CN(c2ccc(N3CCOCC3)c(F)c2)C(=O)O1 [linezolid, reference compound]",MIC,VRSA 12,1 µg/mL
same,MIC,S. aureus NRS 107,1 µg/mL
same,MIC,MRSA NRS 119,> 16 µg/mL
same,MIC,[3],1 µg/mL
same,MIC,MRSA NRS 123,2 µg/mL
same,MIC,MRSA NRS 386,2 µg/mL
same,MIC,[4],2 µg/mL
same,MIC,MRSA NRS 385,2 µg/mL
same,MIC,S. pneumoniae ATCC 51916,2 µg/mL
same,MIC,[5],1 µg/mL
same,MIC,[6],2 µg/mL
same,MIC,S. aureus ATCC 6538,2 µg/mL
same,MIC,VRSA 10,1 µg/mL
